We go through 13 molecules from PubChem BioAssay (NCI).

“And” between values parts separate entries of the source, which are not always exact repeats. Identical values can stand only once.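 Where inhibition never reached the appropriate level, the endpoint shown equals the highest concentration tested. Otherwise, values were interpolated linearly from a five-concentration, 48-hour dose response in 96-well plates. GI50 = concentration required for 50% inhibition of growth. TGI denotes the concentration required for complete inhibition of growth.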 Where a SMILES comes first, the peptide text is derived from it. [ ]: non-standard residue; d: D form. The star is where a group is joined. ξ: configuration not given here. Propanoyl(3-(4-MeO-Ph)) = COc1ccc(CCC(=O)*)cc1; Thr(3ξ) = CC(O)[C@H](N)C(=O)O; dNMeL = CN[C@H](CC(C)C)C(=O)O; ξLac = CC(O)C(=O)O

Assay in all cases: inhibition of tumour cell growth, NCI panel, 48 h
Assay [1] concerns RXF 393 renal.
Assay [2] deals with SF-268 CNS.
Assay [3] has as its system HCC-2998 colon.
Assay [4] relates to NCI-H23 lung.
The test system of assay [5] is SF-295 CNS.
Assay [6] relates to COLO 205 colon.
In assay [7] the test system is SK-OV-3 ovarian.
Assay [8] concerns NCI-H522 lung.
Assay [9] relates to CCRF-CEM leukemia.
Assay [10] has as its system HCT-15 colon.

Take `COc1nc2ccc(CNc3ccc(C(=O)O)cc3)cc2nc1OC`: the TGI in assay [1], in [2], in assay [3], in [4], in [5] and in [6] was greater than 10 µM throughout. Also, the TGI in [7], in assay [8], in assay [9] and in assay [10] was greater than 10 µM throughout.

Take `CCCCCCCC(=O)OCC(C[As](=O)(O)O)OC(=O)CCCCCCC` (stereo unspecified): the TGI in [1] turned out to be 18.2 µM; in [2], 28.7 µM; in assay [3], 31.7 µM; in assay [4] it was 28.7 µM; in [5], 30.6 µM; in [6] it was 27.6 µM. The TGI in assay [7] came out at 29.1 µM; in [8] it was 26.6 µM; in assay [9], 28 µM; in assay [10], 28.5 µM.

In the case of `CC(C)(C)OC(=O)N1Cc2cc(O)ccc2C[C@H]1C(=O)O`, the TGI in assay [1], in assay [2], in [3], in assay [4], in assay [5] and in [6] was greater than 100 µM in each case. Also, the TGI in assay [7], in assay [8], in assay [9] and in assay [10] was greater than 100 µM throughout.

On to `COc1cc([C@@H]2c3cc4c(cc3[C@@H](N=Cc3ccc(C(=O)O[C@@H](C(=O)O[C@H]5C[C@@]6(O)[C@@H](OC(=O)c7ccccc7)[C@@H]7[C@]8(OC(C)=O)CO[C@@H]8C[C@H](O)[C@@]7(C)C(=O)[C@H](OC(C)=O)C(=C5C)C6(C)C)[C@@H](NC(=O)c5ccccc5)c5ccccc5)cc3)[C@H]3COC(=O)[C@H]23)OCO4)cc(OC)c1O`, for which the TGI is greater than 31.1 µM in assay [1]; greater than 50 µM in assay [2]; 2.92 µM in assay [3]; greater than 18.5 µM in [4]; 24.8 µM in assay [5]; greater than 22.7 µM in assay [7]. The TGI in assay [8] and in assay [10] was greater than 50 µM throughout.

Take `N#Cc1ccc(Nc2cnc3ccc(N)cc3n2)cc1`: the TGI in assay [1], in [2], in [3], in assay [4], in assay [5] and in [6] was greater than 100 µM throughout. Also, the TGI in assay [7], in [8], in assay [9] and in assay [10] was greater than 100 µM throughout.

Turning to `CC(O)c1cc2c(s1)C(=O)c1scc(C(C)O)c1C2=O` (stereo unspecified), the TGI is 2.57 µM in [1]; 0.889 µM in assay [2]; 3.46 µM in [3]; 0.415 µM in assay [4]; 0.364 µM in assay [5]; 3.66 µM in assay [6]. The TGI was 7.76 µM in [7], 2.56 µM in assay [8], greater than 100 µM in assay [9] and 1.13 µM in assay [10].

Regarding `COC(=O)C(Cc1ccccc1)NC(=O)c1ccc(CNC(=S)NCc2cccc(CNC(=S)NCc3ccccc3)c2)cc1` (stereo unspecified), the TGI in assay [1], in [2], in [3], in assay [4], in assay [5] and in assay [6] was greater than 62.5 µM in each case. The TGI in assay [7], in assay [8], in assay [9] and in assay [10] was greater than 62.5 µM in each case.

In the case of `C=C1C(=O)O[C@@H]2OC3(C)CCC4C(C)CCC1C42OO3` (stereo partly specified), the GI50 in assay [1] is 3.31 µM; in assay [2], 4.56 µM; in assay [4], 7.77 µM; in assay [5], 11.7 µM; in assay [6], 3.99 µM; in [10], 2.3 µM. For the same molecule, the TGI in assay [1] was 9.65 µM; in assay [2] it was 18.1 µM and 11.6 µM; in [3], 25.9 µM; in assay [4] it was 22 µM and 17.5 µM; in [5], 25.1 µM and 13.4 µM; in assay [6] it was 12.4 µM and 10.8 µM. Besides, the TGI in [7] was 34.7 µM; in assay [8] it was 3.88 µM and 3.16 µM; in assay [9], 2.35 µM and 5.26 µM; in [10], 9.95 µM and 4.02 µM.

Consider `O=C1C2=C(CCCCC2)C2CCCCC12O` (stereo unspecified), for which the TGI in [1], in assay [2], in assay [3], in assay [4], in [5] and in assay [6] was greater than 100 µM in each case. For the same molecule, the TGI in assay [7], in [8] and in [9] was greater than 100 µM throughout.

`COc1cc(/C=c2/c3ccccc3n3c2cc(-c2ccccc2)[n+]3C)cc(OC)c1OC`: the TGI in assay [1] was found to be 6.18 µM; in assay [2] it was 22.9 µM; in assay [3], 19 µM; in [4] it was 14.8 µM; in assay [5], 19.2 µM; in assay [6], 3.22 µM. Also, the TGI in assay [7] is 23.2 µM; in assay [8], 9.6 µM; in assay [9] it was greater than 28.9 µM; in [10], 18.5 µM.

As for `Cc1cc(C)c2c(=N)c3ccccc3n(CCCCCCn3c4ccccc4c(=N)c4c(C)cc(C)nc43)c2n1`, the TGI in [1] was found to be 2.54 µM; in [3] it was 0.323 µM; in assay [4], 2.44 µM; in assay [5], 2.85 µM; in [7], 2.98 µM; in assay [8], 2.31 µM. Besides, the TGI in assay [9] came to 0.565 µM; in assay [10], 0.343 µM.

As to `COc1cc(C2c3cc4c(cc3OC3(OC)COC(=O)C23)OCO4)cc(OC)c1OC` (stereo unspecified), the TGI in assay [1] was 11.7 µM; in assay [2] it was greater than 85.6 µM; in [3], 14.9 µM; in assay [4] it was greater than 100 µM; in assay [5], 0.479 µM; in [6], 0.64 µM. For the same molecule, the TGI was greater than 100 µM in assay [7], 3.19 µM in [8], 3.05 µM in assay [9] and 20.1 µM in [10].

`COC(=O)[C@@H](NC(=O)[C@@H](CC(C)C)N(C)C(=O)[C@@H]1CCCN1C(=O)C(C)O)C(C)OC(=O)CCc1ccc(OC)cc1` (stereo partly specified) (H-[ξLac]P[dNMeL][Thr(3ξ)](Propanoyl(3-(4-MeO-Ph)))-OMe): the TGI in [1], in assay [2], in [3], in assay [4], in [5] and in assay [6] was greater than 100 µM in each case. Moreover, the TGI in assay [7], in [8], in assay [9] and in [10] was greater than 100 µM throughout.
